# In patent publication US7074789B2, “Kinase inhibitors” (Amgen Inc., priority 1999, dated 2006):
# Experiments:
# Type in all cases: biochemical
# [1] = target: T1, Lck (Homo sapiens, UniProt P06239); assay: Kinase inhibition assay (33P transfer), Lck; conditions: Table 3; read-out: Lck-1
# T1 construct: Kinases are expressed as either kinase domains or full length constructs; made in house
# Summary of the method: (§1)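 Each kinase, expressed as a GST- or polyHis-tagged domain or full-length protein, phosphorylated plate-attached poly(Glu,Tyr) 4:1 or poly(Arg,Ser) 3:1 using 33P-ATP. Bound radioactivity was measured by scintillation after a 0.5% phosphoric acid wash.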
# [2] = target: T2, Lyn (Homo sapiens, UniProt P07948); assay: Kinase inhibition assay (33P transfer), Lyn; conditions: Table 6, Lyn-1 kinase inhibition class
# T2 construct: Kinases are expressed as either kinase domains or full length constructs; made in house
# Description: (§2) The inhibitor compounds described herein are screened in the following manner. Kinases suitable for use in the following protocol to determine kinase activity of the compounds described herein include, -but are not limited to: Lck, Lyn, Src, Fyn, Syk, Zap-70, Itk, Tec, Btk, EGFR, ErbB2, Kdr, Flt-1, Flt-3, Tek, c-Met, InsR, and AKT.
# (§3) Kinases are expressed as either kinase domains or full length constructs fused to glutathione S-transferase (GST) or polyHistidine tagged fusion proteins in either E. colior Baculovirus-High Five expression systems. They are purified to near homogeneity by affinity chromatography essentially as previously described (Lehr et al., 1996; Gish et al., 1995). In some instances, kinases are co-expressed or mixed with purified or partially purified regulatory polypeptides prior to measurement of activity.
# (§4) Kinase activity and inhibition are measured essentially by established protocols (Braunwalder et al., 1996). Briefly, The transfer of ^33PO4 from ATP to the synthetic substrates poly(Glu, Tyr) 4:1 or poly(Arg, Ser) 3:1 attached to the bioactive surface of microtiter plates serves as the basis to evaluate enzyme activity. After an incubation period, the amount of phosphate transferred is measured by first washing the plate with 0.5% phosphoric acid, adding liquid scintillant, and then counting in a liquid scintillation detector. The IC50 is determined by the concentration of compound that causes a 50% reduction in the amount of […] incorporated onto the substrate bound to the plate.
# [3] = target: T3, Src (Homo sapiens, UniProt P12931); assay: Kinase inhibition assay (33P transfer), Src; conditions: Table 6, Src-1 kinase inhibition class
# T3 construct: Kinases are expressed as either kinase domains or full length constructs; made in house
# Description: as §2, §3, §4
# [4] = target: T4, Fyn (Homo sapiens, UniProt P06241); assay: Kinase inhibition assay (33P transfer), Fyn; conditions: read-out: Fyn-1
# T4 construct: Kinases are expressed as either kinase domains or full length constructs; made in house
# Description: as §2, §3, §4
# [5] = target: T5, Zap-70 (Homo sapiens, UniProt P43403); assay: Kinase inhibition assay (33P transfer), Zap-70; conditions: Table 3; read-out: Zap-1
# T5 construct: Kinases are expressed as either kinase domains or full length constructs; made in house
# T5 sequence (P43403 1-619): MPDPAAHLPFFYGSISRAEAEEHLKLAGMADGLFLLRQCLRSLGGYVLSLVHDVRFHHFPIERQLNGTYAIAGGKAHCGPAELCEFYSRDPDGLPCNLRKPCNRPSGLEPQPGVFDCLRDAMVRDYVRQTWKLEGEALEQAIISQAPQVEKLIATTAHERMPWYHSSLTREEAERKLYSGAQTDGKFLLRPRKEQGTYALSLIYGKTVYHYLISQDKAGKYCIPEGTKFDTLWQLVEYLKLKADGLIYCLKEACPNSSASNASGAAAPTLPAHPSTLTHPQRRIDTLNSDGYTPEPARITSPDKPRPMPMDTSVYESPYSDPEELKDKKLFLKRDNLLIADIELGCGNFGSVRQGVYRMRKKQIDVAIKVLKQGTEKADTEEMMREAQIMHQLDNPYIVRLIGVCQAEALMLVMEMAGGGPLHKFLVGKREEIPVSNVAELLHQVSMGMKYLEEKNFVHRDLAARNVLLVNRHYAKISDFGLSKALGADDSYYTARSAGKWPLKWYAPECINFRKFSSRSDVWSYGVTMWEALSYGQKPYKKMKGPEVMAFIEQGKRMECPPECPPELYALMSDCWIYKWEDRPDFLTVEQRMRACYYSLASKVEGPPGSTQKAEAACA
# Summary of the method: as §1
# [6] = target: T6, Itk (Homo sapiens, UniProt Q08881); assay: Kinase inhibition assay (33P transfer), Itk; conditions: Table 3; read-out: Itk-1
# T6 construct: Kinases are expressed as either kinase domains or full length constructs; made in house
# T6 sequence (Q08881 1-620): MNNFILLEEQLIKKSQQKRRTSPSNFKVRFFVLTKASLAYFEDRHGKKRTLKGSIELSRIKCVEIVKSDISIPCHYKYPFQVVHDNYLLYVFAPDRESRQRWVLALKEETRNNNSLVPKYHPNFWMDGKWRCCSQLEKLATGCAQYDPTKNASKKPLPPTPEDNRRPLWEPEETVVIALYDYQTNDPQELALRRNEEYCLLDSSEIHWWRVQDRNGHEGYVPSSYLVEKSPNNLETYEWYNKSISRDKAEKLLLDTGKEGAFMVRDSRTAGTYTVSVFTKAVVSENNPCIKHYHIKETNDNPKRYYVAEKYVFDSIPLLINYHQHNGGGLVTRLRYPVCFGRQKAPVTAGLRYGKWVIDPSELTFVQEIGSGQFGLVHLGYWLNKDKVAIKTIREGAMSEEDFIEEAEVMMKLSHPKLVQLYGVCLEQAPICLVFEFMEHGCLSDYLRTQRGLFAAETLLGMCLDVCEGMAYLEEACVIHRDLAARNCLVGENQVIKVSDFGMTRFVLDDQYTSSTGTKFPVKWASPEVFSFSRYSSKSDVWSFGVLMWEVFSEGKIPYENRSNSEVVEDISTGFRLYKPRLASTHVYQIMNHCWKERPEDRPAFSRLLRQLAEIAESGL
# Summary of the method: (§5)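 Using immobilised substrate copolymers (poly(Glu,Tyr) 4:1; poly(Arg,Ser) 3:1) and [33P]ATP, purified fusion kinases were allowed to react; plates were then rinsed in 0.5% phosphoric acid and counted in a scintillation detector. Half-maximal inhibition of label transfer defines IC50.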
# [7] = target: T7, EGFR (Homo sapiens, UniProt P00533); assay: Kinase inhibition assay (33P transfer), EGFR; conditions: Table 2, kinase inhibition class; read-out: EGFR-1
# T7 construct: Kinases are expressed as either kinase domains or full length constructs; made in house
# Summary of the method: as §5
# [8] = target: T8, Kdr (Homo sapiens, UniProt P35968); assay: Kinase inhibition assay (33P transfer), Kdr; conditions: Table 3; read-out: KDR-1
# T8 construct: Kinases are expressed as either kinase domains or full length constructs; made in house
# Summary of the method: as §1
# [9] = target: T9, Flt-1 (Homo sapiens, UniProt P17948); assay: Kinase inhibition assay (33P transfer), Flt-1
# T9 construct: Kinases are expressed as either kinase domains or full length constructs; made in house
# Summary of the method: as §5
# [10] = target: T10, Tek (Homo sapiens, UniProt Q02763); assay: Kinase inhibition assay (33P transfer), Tek; conditions: read-out: Tek-1
# T10 construct: Kinases are expressed as either kinase domains or full length constructs; made in house
# Summary of the method: as §5
# [11] = target: T11, c-Met (Homo sapiens, UniProt P08581); assay: Kinase inhibition assay (33P transfer), c-Met; conditions: Table 2, kinase inhibition class; read-out: Met-1
# T11 construct: Kinases are expressed as either kinase domains or full length constructs; made in house
# Summary of the method: as §5
# [12] = target: T12, AKT (Homo sapiens, UniProt Q9Y243); assay: Kinase inhibition assay (33P transfer), AKT; conditions: Table 2, kinase inhibition class; read-out: AKT3-1
# T12 construct: Kinases are expressed as either kinase domains or full length constructs; made in house
# Summary of the method: as §1
# [13] = target: T13, PDGFRB (Homo sapiens, UniProt P09619); assay: Kinase inhibition assay (33P transfer), PDGFRB; conditions: read-out: PDGFRB-1
# T13 construct: Kinases are expressed as either kinase domains or full length constructs; made in house
# [14] = target: T14, Hck-1 (Homo sapiens, UniProt P08631); assay: Kinase inhibition assay (33P transfer), Hck; conditions: Table 6, Hck-1 kinase inhibition class
# T14 construct: Kinases are expressed as either kinase domains or full length constructs; made in house
# [15] = target: T15, ErbB4 (Homo sapiens, UniProt Q15303); assay: Kinase inhibition assay (33P transfer), ErbB4; conditions: read-out: ErbB4-1
# T15 construct: Kinases are expressed as either kinase domains or full length constructs; made in house
# [16] = target: T16, FGFR1 (Homo sapiens, UniProt P11362); assay: Kinase inhibition assay (33P transfer), FGFR1; conditions: read-out: FGFR1-1
# T16 construct: Kinases are expressed as either kinase domains or full length constructs; made in house
# T11 sequence (P08581 25-1390): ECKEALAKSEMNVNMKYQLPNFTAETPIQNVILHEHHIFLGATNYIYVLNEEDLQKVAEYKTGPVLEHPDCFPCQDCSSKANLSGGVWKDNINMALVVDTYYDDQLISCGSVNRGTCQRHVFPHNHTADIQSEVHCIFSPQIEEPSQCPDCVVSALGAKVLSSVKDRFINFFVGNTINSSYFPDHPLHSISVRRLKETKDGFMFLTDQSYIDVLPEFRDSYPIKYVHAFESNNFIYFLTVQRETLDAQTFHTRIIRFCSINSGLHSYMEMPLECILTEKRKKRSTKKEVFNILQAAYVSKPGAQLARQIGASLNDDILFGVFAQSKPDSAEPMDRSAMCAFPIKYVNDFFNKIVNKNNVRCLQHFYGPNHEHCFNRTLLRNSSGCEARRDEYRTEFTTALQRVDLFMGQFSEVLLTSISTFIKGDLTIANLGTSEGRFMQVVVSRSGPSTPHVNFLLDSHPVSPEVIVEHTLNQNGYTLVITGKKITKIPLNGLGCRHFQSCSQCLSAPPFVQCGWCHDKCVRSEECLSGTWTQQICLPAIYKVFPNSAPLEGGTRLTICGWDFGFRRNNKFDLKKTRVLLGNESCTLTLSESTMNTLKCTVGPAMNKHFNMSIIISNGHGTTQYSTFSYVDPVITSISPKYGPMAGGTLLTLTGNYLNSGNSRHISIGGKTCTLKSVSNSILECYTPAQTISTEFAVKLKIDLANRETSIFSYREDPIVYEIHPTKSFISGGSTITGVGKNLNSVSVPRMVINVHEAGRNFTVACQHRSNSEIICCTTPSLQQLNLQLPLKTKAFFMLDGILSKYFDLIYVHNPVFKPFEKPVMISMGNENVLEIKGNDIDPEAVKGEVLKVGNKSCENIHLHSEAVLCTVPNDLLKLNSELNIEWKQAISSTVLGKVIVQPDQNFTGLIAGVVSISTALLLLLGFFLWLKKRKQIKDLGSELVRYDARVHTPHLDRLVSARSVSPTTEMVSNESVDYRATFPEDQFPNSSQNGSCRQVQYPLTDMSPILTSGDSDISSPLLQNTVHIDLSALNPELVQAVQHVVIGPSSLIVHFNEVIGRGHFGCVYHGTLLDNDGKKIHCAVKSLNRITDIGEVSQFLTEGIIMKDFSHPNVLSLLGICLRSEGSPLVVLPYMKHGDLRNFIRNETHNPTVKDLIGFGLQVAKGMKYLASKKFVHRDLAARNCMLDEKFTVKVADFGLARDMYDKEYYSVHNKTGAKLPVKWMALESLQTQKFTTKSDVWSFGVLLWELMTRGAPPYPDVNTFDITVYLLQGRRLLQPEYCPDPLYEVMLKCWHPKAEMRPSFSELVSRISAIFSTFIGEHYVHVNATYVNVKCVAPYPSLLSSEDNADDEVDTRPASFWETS
# T9 sequence (P17948 27-1338, species assumed): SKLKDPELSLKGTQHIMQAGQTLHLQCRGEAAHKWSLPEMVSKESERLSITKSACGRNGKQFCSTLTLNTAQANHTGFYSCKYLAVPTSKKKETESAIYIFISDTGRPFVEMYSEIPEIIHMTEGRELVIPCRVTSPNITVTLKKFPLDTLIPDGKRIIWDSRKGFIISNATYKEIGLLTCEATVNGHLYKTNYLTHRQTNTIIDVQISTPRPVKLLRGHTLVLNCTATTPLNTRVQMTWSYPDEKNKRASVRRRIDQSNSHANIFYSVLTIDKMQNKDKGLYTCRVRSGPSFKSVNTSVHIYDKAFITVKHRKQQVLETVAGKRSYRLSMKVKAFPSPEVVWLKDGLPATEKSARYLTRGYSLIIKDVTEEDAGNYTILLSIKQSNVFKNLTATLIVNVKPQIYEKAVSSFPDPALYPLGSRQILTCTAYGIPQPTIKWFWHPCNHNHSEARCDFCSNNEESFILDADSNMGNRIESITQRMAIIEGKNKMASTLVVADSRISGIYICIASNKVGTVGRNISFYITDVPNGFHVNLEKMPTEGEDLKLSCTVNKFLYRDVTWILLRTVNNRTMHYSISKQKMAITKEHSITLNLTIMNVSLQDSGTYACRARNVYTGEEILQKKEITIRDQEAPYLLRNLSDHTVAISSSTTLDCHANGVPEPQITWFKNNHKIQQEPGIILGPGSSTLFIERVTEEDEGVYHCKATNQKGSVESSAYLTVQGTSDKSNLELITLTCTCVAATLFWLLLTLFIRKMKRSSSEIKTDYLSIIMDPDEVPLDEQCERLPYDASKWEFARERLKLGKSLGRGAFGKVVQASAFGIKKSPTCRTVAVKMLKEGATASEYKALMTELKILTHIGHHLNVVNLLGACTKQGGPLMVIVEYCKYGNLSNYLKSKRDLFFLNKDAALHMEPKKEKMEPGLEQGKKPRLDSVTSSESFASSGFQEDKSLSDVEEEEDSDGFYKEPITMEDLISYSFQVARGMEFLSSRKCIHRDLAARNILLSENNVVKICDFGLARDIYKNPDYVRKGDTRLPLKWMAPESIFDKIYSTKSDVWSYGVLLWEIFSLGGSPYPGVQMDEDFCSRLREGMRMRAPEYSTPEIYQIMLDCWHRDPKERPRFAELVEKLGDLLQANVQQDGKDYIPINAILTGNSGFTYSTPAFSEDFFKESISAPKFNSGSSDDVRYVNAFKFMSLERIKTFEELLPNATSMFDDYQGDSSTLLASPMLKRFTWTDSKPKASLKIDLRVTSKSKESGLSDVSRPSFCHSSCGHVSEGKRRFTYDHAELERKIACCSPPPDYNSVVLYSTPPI
# T12 sequence (Q9Y243 whole entry, the tested form may be a part): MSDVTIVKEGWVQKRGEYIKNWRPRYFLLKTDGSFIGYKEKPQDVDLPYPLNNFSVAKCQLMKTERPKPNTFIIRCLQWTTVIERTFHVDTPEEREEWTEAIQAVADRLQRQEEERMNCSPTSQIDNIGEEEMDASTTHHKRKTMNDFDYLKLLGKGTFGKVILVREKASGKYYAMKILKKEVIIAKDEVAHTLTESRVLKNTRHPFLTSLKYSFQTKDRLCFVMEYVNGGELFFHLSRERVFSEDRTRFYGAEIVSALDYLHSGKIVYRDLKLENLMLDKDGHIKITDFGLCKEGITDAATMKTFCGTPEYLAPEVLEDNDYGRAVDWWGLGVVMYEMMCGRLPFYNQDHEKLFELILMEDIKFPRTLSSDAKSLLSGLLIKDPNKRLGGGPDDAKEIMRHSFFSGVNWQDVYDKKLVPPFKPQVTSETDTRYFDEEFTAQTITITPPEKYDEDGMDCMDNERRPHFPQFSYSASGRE
# T4 sequence (P06241 whole entry, species assumed, the tested form may be a part): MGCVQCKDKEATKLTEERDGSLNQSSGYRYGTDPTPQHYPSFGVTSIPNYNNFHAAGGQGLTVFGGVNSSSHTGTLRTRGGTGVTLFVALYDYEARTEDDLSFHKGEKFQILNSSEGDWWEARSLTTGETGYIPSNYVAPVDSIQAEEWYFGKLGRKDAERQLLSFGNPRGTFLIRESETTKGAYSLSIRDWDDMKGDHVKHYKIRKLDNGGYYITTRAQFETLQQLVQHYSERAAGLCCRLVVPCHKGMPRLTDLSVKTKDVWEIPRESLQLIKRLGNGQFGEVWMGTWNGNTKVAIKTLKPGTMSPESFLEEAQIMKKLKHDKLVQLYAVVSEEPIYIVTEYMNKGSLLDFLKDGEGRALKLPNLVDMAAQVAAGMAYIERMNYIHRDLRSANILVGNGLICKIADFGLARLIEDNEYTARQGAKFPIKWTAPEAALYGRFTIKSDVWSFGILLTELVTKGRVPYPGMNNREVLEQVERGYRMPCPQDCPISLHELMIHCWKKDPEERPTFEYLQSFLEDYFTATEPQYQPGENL
# T8 sequence (P35968 20-1356, species assumed): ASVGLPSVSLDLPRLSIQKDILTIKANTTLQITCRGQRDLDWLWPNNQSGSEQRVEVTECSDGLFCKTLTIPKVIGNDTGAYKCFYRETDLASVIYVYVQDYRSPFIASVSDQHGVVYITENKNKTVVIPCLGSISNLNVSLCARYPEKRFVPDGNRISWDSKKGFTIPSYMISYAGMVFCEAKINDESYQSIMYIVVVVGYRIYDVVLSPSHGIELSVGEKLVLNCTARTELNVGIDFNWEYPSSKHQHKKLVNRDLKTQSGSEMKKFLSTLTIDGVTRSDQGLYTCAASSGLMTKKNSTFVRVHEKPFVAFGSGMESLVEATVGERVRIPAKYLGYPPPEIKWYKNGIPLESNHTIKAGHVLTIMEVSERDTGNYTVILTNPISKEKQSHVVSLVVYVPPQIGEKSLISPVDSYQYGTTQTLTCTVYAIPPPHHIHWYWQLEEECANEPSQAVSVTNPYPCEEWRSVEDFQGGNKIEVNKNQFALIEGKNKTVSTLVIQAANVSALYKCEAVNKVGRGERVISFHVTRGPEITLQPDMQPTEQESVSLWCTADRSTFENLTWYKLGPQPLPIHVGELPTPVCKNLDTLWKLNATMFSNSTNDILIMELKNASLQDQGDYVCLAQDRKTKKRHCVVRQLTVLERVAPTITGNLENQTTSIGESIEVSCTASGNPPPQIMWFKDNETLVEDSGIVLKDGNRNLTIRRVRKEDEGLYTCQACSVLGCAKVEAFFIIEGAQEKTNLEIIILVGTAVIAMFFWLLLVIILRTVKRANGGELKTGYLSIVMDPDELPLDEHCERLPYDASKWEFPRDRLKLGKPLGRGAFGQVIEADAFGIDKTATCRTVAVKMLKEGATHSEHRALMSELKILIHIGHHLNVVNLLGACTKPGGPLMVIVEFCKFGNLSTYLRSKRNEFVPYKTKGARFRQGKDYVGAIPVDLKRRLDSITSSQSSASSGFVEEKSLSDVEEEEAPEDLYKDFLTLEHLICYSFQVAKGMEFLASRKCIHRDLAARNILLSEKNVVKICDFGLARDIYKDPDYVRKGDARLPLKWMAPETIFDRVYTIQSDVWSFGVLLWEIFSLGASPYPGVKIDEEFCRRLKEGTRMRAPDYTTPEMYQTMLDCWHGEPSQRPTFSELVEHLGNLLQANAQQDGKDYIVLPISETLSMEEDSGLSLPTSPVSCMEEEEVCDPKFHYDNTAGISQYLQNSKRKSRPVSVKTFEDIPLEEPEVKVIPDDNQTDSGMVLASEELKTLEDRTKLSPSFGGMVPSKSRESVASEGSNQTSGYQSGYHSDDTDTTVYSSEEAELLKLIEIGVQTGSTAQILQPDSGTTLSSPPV
Compound,IC50 [1],IC50 [2],IC50 [3],IC50 [4],IC50 [5],IC50 [6],IC50 [7],IC50 [8],IC50 [9],IC50 [10],IC50 [11],IC50 [12],IC50 [13],IC50 [14],IC50 [15],IC50 [16]
CC(=O)NS(=O)(=O)c1ccc(Nc2ncnc(-n3c(N)nc4ccccc43)n2)cc1 [Compound 440],0.942 to 5.65 µM,5.65 to 8.25 µM,> 10.6 µM,0.942 to 5.65 µM,0.942 to 5.65 µM,8.25 to 10.6 µM,0.942 to 5.65 µM,0.942 to 5.65 µM,0.942 to 5.65 µM,5.65 to 8.25 µM,0.942 to 5.65 µM,> 10.6 µM,0.942 to 5.65 µM,5.65 to 8.25 µM,0.942 to 5.65 µM,0.942 to 5.65 µM
CCOC(=O)Cc1cn(-c2ncnc(Nc3cc(OC)c(OC)c(OC)c3)n2)c2ccccc12 [Compound 411],7.55 to 9.71 µM,0.863 to 5.18 µM,0.863 to 5.18 µM,> 9.71 µM,> 9.71 µM,> 9.71 µM,> 9.71 µM,< 0.863 µM,0.863 to 5.18 µM,> 9.71 µM,< 0.863 µM,> 9.71 µM,< 0.863 µM,> 9.71 µM,> 9.71 µM,< 0.863 µM
COc1cc(Nc2ncnc(-n3c(N)nc4ccccc43)n2)cc(OCCN2CCOCC2)c1OC [Compound 466],< 0.812 µM,< 0.812 µM,0.812 to 4.87 µM,0.812 to 4.87 µM,> 9.14 µM,4.87 to 7.11 µM,> 9.14 µM,< 0.812 µM,< 0.812 µM,7.11 to 9.14 µM,0.812 to 4.87 µM,> 9.14 µM,< 0.812 µM,> 9.14 µM,> 9.14 µM,< 0.812 µM
COc1cc(Nc2ncnc(-n3c(NCC(C)C)nc4ccccc43)n2)cc(OC)c1OC [Compound 407],< 0.89 µM,< 0.89 µM,< 0.89 µM,< 0.89 µM,> 10 µM,> 10 µM,> 10 µM,< 0.89 µM,< 0.89 µM,> 10 µM,> 10 µM,> 10 µM,< 0.89 µM,> 10 µM,> 10 µM,< 0.89 µM
COc1ccc(Nc2nc3ccccc3n2-c2ncnc(Nc3cc(OC)c(OC)c(OC)c3)n2)cc1 [Compound 397],< 0.801 µM,> 9.01 µM,> 9.01 µM,> 9.01 µM,> 9.01 µM,> 9.01 µM,> 9.01 µM,< 0.801 µM,< 0.801 µM,> 9.01 µM,> 9.01 µM,> 9.01 µM,< 0.801 µM,> 9.01 µM,> 9.01 µM,< 0.801 µM
CNc1nc2ccccc2n1-c1ncnc(Nc2cc(OC)c(OC)c(OC)c2)n1 [Compound 417],< 0.982 µM,0.982 to 5.89 µM,0.982 to 5.89 µM,5.89 to 8.59 µM,> 11 µM,> 11 µM,> 11 µM,< 0.982 µM,0.982 to 5.89 µM,> 11 µM,> 11 µM,> 11 µM,< 0.982 µM,> 11 µM,> 11 µM,< 0.982 µM
COc1cc(Nc2ncnc(N[C@H](CO)c3ccccc3)n2)cc(OC)c1OC [Compound 425],> 11.3 µM,< 1.01 µM,1.01 to 6.04 µM,8.81 to 11.3 µM,> 11.3 µM,> 11.3 µM,1.01 to 6.04 µM,8.81 to 11.3 µM,> 11.3 µM,> 11.3 µM,> 11.3 µM,> 11.3 µM,1.01 to 6.04 µM,> 11.3 µM,> 11.3 µM,6.04 to 8.81 µM
